The values below come from patent US7344829B2, “Methods for detecting the efficacy of anticancer treatments” (Board of Regents, the University of Texas System, priority 2000, dated 2008).

Marks after values point to notes of the source that are not given here.

The target of one assay is T1, KDR (Homo sapiens, UniProt P35968).
T1 construct: GST-fused kinase domains of Kdr, Flt-1, Flk, Tek, c-Met, and c-Kit were expressed in baculovirus; GST; made in house
The assay can be described thus: GST-fused kinase domain assay, KDR. The assay is classed as biochemical. The procedure: (§1) GST-fused kinase domains of Kdr, Flt-1, Flk, Tek, c-Met, and c-Kit were expressed in baculovirus and purified over glutathione-Sepharose. Kinase inhibition was measured by detecting the decrease in phosphorylation of poly(Glu,Tyr 4:1) essentially as previously described for EGF-R. Each kinase was incubated under optimized buffer conditions in 20 mM Tris-HCl, pH 7.5, 1–3 mM MnCl2, 3–10 mM MgCl2, 10 μM Na3VO4, 1 mM DTT, 0.2 μCi/[γ-^33P]ATP, 1–8 μM ATP, 3–8 μg/ml poly(Glu,Tyr 4:1), 1% DMSO in a total volume of 30 μl in the presence or absence of PKI166 for 10 min at ambient temperature. Reactions were terminated by adding 10 μl of 250 mM EDTA, and the reaction mixture was transferred onto an Immobilon-PVDG membrane (Millipore, Bedford, Mass.). Following a washing (0.5% H3PO4), a soaking in EtOH, and drying, filters were counted in a liquid scintillation counter. IC50 values for PKI166 were calculated by linear regression analysis of the percentage inhibition. Inhibition of Cdc2/cyclin B protein kinase (Arion et al. 1988; Partanen et al. 1991) and PKC (McGlynn et al. 1992b) was assayed as previously described.

In a further assay the target is T2, Flt-1 (Homo sapiens, UniProt P17948).
T2 construct: GST-fused kinase domains of Kdr, Flt-1, Flk, Tek, c-Met, and c-Kit were expressed in baculovirus; GST; made in house
T2 sequence (P17948 827-1158 limits assumed): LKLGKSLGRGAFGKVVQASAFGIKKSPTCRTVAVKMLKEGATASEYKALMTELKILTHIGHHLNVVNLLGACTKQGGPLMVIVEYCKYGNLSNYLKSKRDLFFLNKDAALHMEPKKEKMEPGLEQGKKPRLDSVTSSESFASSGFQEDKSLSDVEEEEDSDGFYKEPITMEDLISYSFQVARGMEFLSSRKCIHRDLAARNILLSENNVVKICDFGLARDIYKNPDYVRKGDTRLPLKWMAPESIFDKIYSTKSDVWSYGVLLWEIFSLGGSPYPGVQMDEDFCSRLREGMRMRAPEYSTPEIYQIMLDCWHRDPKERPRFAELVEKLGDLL
Kind of assay: GST-fused kinase domain assay, Flt-1. It counts as biochemical. The conditions noted are these: Flt-1, text. The protocol: as §1

The target of a further assay is T3, c-Kit (Homo sapiens, UniProt P10721).
T3 construct: GST-fused kinase domains of Kdr, Flt-1, Flk, Tek, c-Met, and c-Kit were expressed in baculovirus; GST; made in house
T3 sequence (P10721 589-937 limits assumed): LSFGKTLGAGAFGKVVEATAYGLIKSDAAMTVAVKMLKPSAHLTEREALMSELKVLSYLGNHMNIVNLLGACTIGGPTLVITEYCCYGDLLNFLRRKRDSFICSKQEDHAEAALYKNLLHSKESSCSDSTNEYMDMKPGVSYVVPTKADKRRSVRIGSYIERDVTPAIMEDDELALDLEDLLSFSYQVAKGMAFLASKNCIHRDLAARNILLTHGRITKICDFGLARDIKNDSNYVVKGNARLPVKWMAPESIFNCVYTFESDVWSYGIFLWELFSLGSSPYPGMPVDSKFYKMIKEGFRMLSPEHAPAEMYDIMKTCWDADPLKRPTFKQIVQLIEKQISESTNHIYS
Kind of assay: GST-fused kinase domain assay, c-Kit. The assay is classed as biochemical. The protocol: as §1

In the next assay the target is PKC-α (Homo sapiens, UniProt P17252). The assay can be described thus: PKC inhibition assay. It counts as biochemical. The procedure:
as §1

The subject of assay [1] is L3.6pl human pancreatic cancer cells. Kind of assay: Immunohistochemical analysis of human pancreatic carcinoma in the pancreas of treated nude mice. The assay is classed as in vivo. The conditions noted are these: for PCNA+ tumor cells / TUNEL+ tumor cells: mean ± SD, 10 random 0.159-mm^2 fields at ×100; for CD (CD31, tumor MVD per field): staining with antibodies against CD31. From the text: Immunohistochemical (IHC) Determination of VEGF, IL-8, PCNA, CD31/PECAM-1, and EGF-R. Paraffin-embedded tissues were used for identification of VEGF, IL-8, EGF-R, and proliferating cell nuclear antigen (PCNA). Sections (4–6 μm thick) were mounted on positively-charged Superfrost slides (Fisher Scientific, Co., Houston, Tex.) and dried overnight. Sections were deparaffinized in xylene followed by treatment with a graded series of alcohol (100%, 95%, 80% ethanol/ddH2O [v/v]) and rehydrated in PBS, pH 7.5. Sections analyzed for PCNA were microwaved 5 min for “antigen retrieval” (Shi et al. 1991). All other paraffin-embedded tissues were treated with pepsin (Biomeda) for 15 min at 37° C. and washed with PBS. Frozen tissues used for identification of CD31/PECAM-1, and activated EGF-R were sectioned (8–10 μm), mounted on positively charged Plus slides (Fisher Scientific), and air-dried for 30 min. Frozen sections were fixed in cold acetone (5 min), acetone/chloroform (v/v) (5 min), and acetone (5 min) and washed with PBS. Immunohistochemical procedures were performed as described previously (Rak et al. 1996). Positive reaction was visualized by incubating the slides with stable 3,3′-diaminobenzidine (DAB) for 10–20 min or 3-amino-9-ethylcarbazole (AEC) after CD31 staining. The sections were rinsed with distilled water, counterstained with Gill's hematoxylin for 1 min, and mounted with Universal Mount (Research Genetics). […] Sections analyzed for activated EGF-R were pretreated with goat anti-mouse IgG F(ab)2 fragment (1:10 dilution in PBS) for 4–6 h before incubation with the primary antibody. The positive reaction following staining for activated EGF-R was enhanced with osmium tetraoxide (4% aqueous solution) at a 1:1000 dilution in ddH2O after incubation with DAB.
Immunofluorescence Double Staining for CD31/PECAM-1 (Endothelial Cells) and TUNEL (Apoptotic Cells). Frozen tissues were sectioned (8–10 μm), mounted on positively charged slides, air-dried for 30 min, and fixed in cold acetone for 5 min, acetone+chloroform (1:1) for 5 min, and acetone for 5 min. Samples were washed 3 times with PBS, incubated with protein-blocking solution containing 5% normal horse serum and 1% normal goat serum in PBS for 20 min at room temperature, and incubated with the appropriate dilution (1:400) of rat monoclonal anti-mouse CD31 antibody (human cross-reactive) over 18 h at 4° C. After the samples were rinsed 4 times for 3 min each with PBS, the slides were incubated with the appropriate dilution (1:200) of secondary goat anti-rat conjugated to Texas Red for 1 h at room temperature in the dark. Samples were washed twice with PBS containing 0.1% Brij and washed with PBS for 5 min.
TUNEL was performed using a commercially available apoptosis detection kit with the following modifications: samples were fixed with 4% paraformaldehyde (methanol-free) for 10 min at room temperature, washed twice with PBS for 5 min, and then incubated with 0.2% Triton X-100 for 15 min at room temperature. After two washes of 5 min each with PBS, the samples were incubated with equilibration buffer (from kit) for 10 min at room temperature. The equilibration buffer was drained, and reaction buffer containing equilibration buffer, nucleotide mix, and TdT enzyme was added to the tissue sections and incubated in a humid atmosphere at 37° C. for 1 h in the dark. The reaction was terminated by immersing the samples in 2×SSC for 15 min. Samples were washed 3 times for 5 min to remove unincorporated fluorescein-dUTP. For quantification of […], the samples were incubated with 300 μg/ml of Hoechst stain for 10 min at room temperature. Fluorescent bleaching was minimized by treating slides with an enhancing reagent (Prolong solution). […]

[2] abbreviates: mean ± SD absorbance, ratio of tumor cell to normal pancreatic gland expression ×100, day 35.

T1 sequence (P35968 834-1162 limits assumed): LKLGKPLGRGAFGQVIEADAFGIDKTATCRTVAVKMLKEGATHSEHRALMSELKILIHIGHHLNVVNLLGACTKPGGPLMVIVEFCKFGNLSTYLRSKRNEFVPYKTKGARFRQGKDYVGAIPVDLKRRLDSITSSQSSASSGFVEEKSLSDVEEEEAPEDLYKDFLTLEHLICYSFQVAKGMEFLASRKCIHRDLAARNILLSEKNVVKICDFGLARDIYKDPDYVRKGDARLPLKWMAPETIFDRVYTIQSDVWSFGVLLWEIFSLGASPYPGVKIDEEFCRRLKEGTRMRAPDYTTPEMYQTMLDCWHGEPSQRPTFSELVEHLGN

Consider `C[C@@H](Nc1ncnc2[nH]c(-c3ccc(O)cc3)cc12)c1ccccc1` [PKI166, 4-(R)-phenethylamino-6-(hydroxyl) phenyl-7H-pyrrolo[2.3-d]-pyrimidine], for which the IC50 is 327 nM against KDR, 962 nM against Flt-1, 2210 nM on c-Kit and > 100000 nM at PKC-α. For the same compound, the “percentage of apoptotic endothelial cells over total endothelial cells” value in assay [1] (CD31/TUNEL double labeling, tumors harvested 23 days after initiation of treatment) is recorded as 20±15. Also, the “ratio of PCNA-positive over TUNEL-positive cells” value in assay [1] (calculated) is given as 0.64. Besides, the “Staining of pancreatic tumors for activated (phosphorylated) EGF-R” value in assay [1] (immunohistochemistry of tumors from treated nude mice) is on record as “not the activated (phosphorylated) EGF-R”. For the same compound, in assay [1] (setting [2]), the IL-8 is given as 185 ± 11^e. In assay [1] (setting [2]), the VEGF was 173 ± 20^e. The “PCNA+ tumor cells” value is listed as 185±33 positive cells/field in assay [1] (day 35) and 185 ± 33 positive cells/field in assay [1] (day 35, listed as PK1166). Besides, the “TUNEL+ tumor cells” value in assay [1] (day 35) is 287±84 positive cells/field; in assay [1] (day 35, listed as PK1166) it was 287 ± 84^e positive cells/field. Further, the “CD (CD31, tumor MVD per field)” value in assay [1] (day 35) was 24±18; in assay [1] (day 35, listed as PK1166), 24.

By IC50 is commonly meant the point on the concentration scale where inhibition reaches its midpoint.
